Results from US10507227B2, “Cationic antimicrobial peptides” (The Hospital for Sick Children, priority 2014, dated 2019).
In brackets after ≈: the same amount, converted by molar mass.

What was measured:
[1] = tested on: clinical strains of P. aeruginosa; test: microbe, parasite or virus in culture; format: cell-based, Pseudomonas aeruginosa; conditions: for MIC: Pseudomonas aeruginosa
Procedure: MICs (μg/ml, x-axis) for each compound are shown below each graph. […] The OD at 600 nm quantitates the extent of bacterial growth. Diamonds=L6K-F17; squares=tobramycin. Incubation: 37° C. for 19-24 hours.
Nine different clinical P. aeruginosa isolates were tested with a representative CAP, L-6KF17.

[2] = tested on: clinically isolated P. aeruginosa mucoid strains (biofilm); test: Biofilm antibacterial susceptibility assay, biofilm recovery plate (BICs); format: cell-based, Pseudomonas aeruginosa
Procedure: (§1) The clinically isolated P. aeruginosa mucoid strains that were used in these experiments are described in Table 1.
(§2) Methods: Prep Work—3 Days Culture the Clinical Mucoid P. aeruginosa Strains Isolated from CF Patients • 1. Freshly subculture the glycerol stock of the strain (stored at −80° C.) by streaking onto a blood agar (3˜4 streaks). Incubate the blood agar plate at 37° C. for 24 hr. The consistency of the mucoid phenotype can be improved by further subculturing (e.g., a total of 3 times, one/day). • 2. The following day, pick a few colonies and streak them onto a fresh blood agar. Note: Every time the cells are cultured using the stock strains (stored at −80° C.), they should be subcultured 3 times in total, and the last blood agar plate is then good for about one week. In the following week, the strains can be re-subcultured from the last agar plate to grow fresh colonies—this needs only to be done once (no need to do it 3 times). If the mucoid phenotype is lost, the glycerol stocks (−80° C.) should be used, and subcultured 3 times. Biofilm Assay—Day 1 Grow Overnight Cell Culture • 1. Inoculate freshly cultured cells (see prep work) in 10 mL TSB, and grow overnight at 37° C. on a shaker. […] Biofilm Assay—Day 2 Biofilm Set-up • 1. Make 0.5 McFarland for each strain/organism (add ˜100 μL O/N culture to 2 mL 50% TSB): • 0.5 McFarland=10^8 CFU/mL. • To calibrate a colourimeter/turbidity meter: • Positive blank: place a solid marker in the holder; turn the left knob to adjust to zero. • Negative blank: use a glass tube containing 50% TSB (1:1 TSB/H2O); adjust the right knob to 100% T. • Non-mucoid strains should be read in the lower ‘red zone’ on a colorimeter/turbidity meter. • Mucoid strains should be a bit heavier, and read in the mid ‘red zone’. • 2. Make bacterial inoculums: to a 50 mL falcon tube, add 300 μL of 0.5 McFarland to 19.7 mL of TSB. • 3. Mix the tube gently by inverting. • 4. In the biosafety fume hood or beside the flame: • Label a 96-well plate: strain and time. • Pour inoculum into a reservoir. • Using the multi-channel pipet, add 150 μL of inoculum into each well, leave the last column empty (last column=negative control, no cells). • Carefully place a peg lid onto the plate, match the cut corners. • 5. Place the plate on a shaker in 37° C. incubator (requires ≥3 h). Checking Biofilm Plate Growth • 1. Check plates periodically using a plate-reader to determine OD readings: • At OD650, aim for ˜0.045-0.050. • Depending on the strain, require 3-28 h to grow. […] Loading Antibiotic Plates • 1. Place the peg lid (containing biofilm growth) of the susceptibility plate into a pre-made 96-well antibiotic plate (see protocol from Day 1; see FIG. 1). Incubate at 37° C. for 24 h. * This will be referred to the planktonic growth plate, which measures the planktonic susceptibility in the biofilm assay, or MICs. * • 2. Place the lid of 96-well antibiotic plate onto the previous susceptibility plate, and keep in the fridge for reference until the experiment is completed. • 3. Proceed to perform inoculum check (see below) Inoculum Check • 1. Purity check: • Take a loopful of bacteria culture from any well of the susceptibility plate. • Spread onto half of a blood agar plate. • Place in the incubator at 37° C. for 24 h. • 2. Inoculum check: • In sterile Eppendorf tubes or liver vials (need 4 per strain), prepare the following dilutions: • a. 10^2: […] from any well of the susceptibility plate. • b. 10^3: 900 μL of H2O and 100 μL of mixture from Step (a). • c. 10^4: 900 μL of H2O and 100 μL of mixture from Step (b). • d. 10^5: 900 μL of H2O and 100 μL of mixture from Step (c). • Split blood agar plates into quadrants: two for 10^4 and two for 10^5. • Take 50 μL from Step (c) or Step (d) and place onto blood agar plates. • Let dry for about 30 min in the hood with the lid closed, and then incubate upside-down at 37° C. for 18˜24 h.

[3] = tested on: clinically isolated P. aeruginosa mucoid strains; test: microbe, parasite or virus in culture; conditions: Pseudomonas aeruginosa
Procedure: as §1, §2

## C[C@H](NC(=O)[C@H](C)NC(=O)[C@H](Cc1ccccc1)NC(=O)[C@H](C)NC(=O)[C@H](C)NC(=O)[C@H](Cc1c[nH]c2ccccc12)NC(=O)[C@H](C)NC(=O)[C@H](C)NC(=O)[C@H](Cc1ccccc1)NC(=O)[C@H](C)NC(=O)[C@H](C)NC(=O)[C@H](CCCCN)NC(=O)[C@H](CCCCN)NC(=O)[C@H](CCCCN)NC(=O)[C@H](CCCCN)NC(=O)[C@H](CCCCN)NC(=O)[C@@H](N)CCCCN)C(N)=O [L-6KF17]
[1]; nine clinical P. aeruginosa isolates
  MIC compared with tobramycin: equal to or superior to tobramycin in most cases

## C[C@@H](O)[C@H]1C(=O)N2C(C(=O)O)=C(S[C@@H]3CN[C@H](C(=O)N(C)C)C3)[C@H](C)[C@H]12 [Meropenem, meropenem]
[2]; strain HSC 003B3-1, biofilm
  BIC: ≤0.5 µg/mL
[2]; strain HSC 020B2-1, biofilm
  BIC: 2 µg/mL
[2]; strain HSC 027B2-3, biofilm
  BIC: 4 µg/mL
[3]; strain HSC 003B3-1, planktonic
  MIC: ≤ 0.5 µg/mL
[3]; strain HSC 020B2-1, planktonic
  MIC: 1 to 2 µg/mL (≈ 2.61 to 5.22 µM)
[3]; strain HSC 027B2-3, planktonic
  MIC: 2 µg/mL (≈ 5.22 µM)

## NC[C@H]1O[C@H](O[C@H]2[C@H](O)[C@@H](O[C@H]3O[C@H](CO)[C@@H](O)[C@H](N)[C@H]3O)[C@H](N)C[C@@H]2N)[C@H](N)C[C@@H]1O [Tobramycin, tobramycin]
[2]; strain HSC 003B3-1, biofilm
  BIC: 8 to 64 µg/mL
[2]; strain HSC 020B2-1, biofilm
  BIC: 128 µg/mL
[2]; strain HSC 027B2-3, biofilm
  BIC: >128 µg/mL
[2]; strain SMH 022B5-2, biofilm
  BIC: ≤0.5 µg/mL
[2]; strain SMH 051B3-1, biofilm
  BIC: ≤0.5 µg/mL
[2]; strain SMH 123E1-1, biofilm
  BIC: 0.5 to 1 µg/mL
[1]; strain HSC 002B10-2
  MIC: 1 µg/mL (≈ 2.14 µM)
[1]; strain HSC 004B1-3
  MIC: 8 µg/mL (≈ 17.1 µM)
[1]; strain HSC 007E3-2
  MIC: 8 µg/mL (≈ 17.1 µM)
[1]; strain HSC 035B7-1
  MIC: > 32 µg/mL
[1]; strain SMH 064B15-2
  MIC: 2 µg/mL (≈ 4.28 µM)
[1]; strain SMH 072B5-2
  MIC: > 32 µg/mL
[1]; strain SMH 112B41
  MIC: 2 µg/mL (≈ 4.28 µM)
[1]; strain SMH 130B12-1
  MIC: 8 µg/mL (≈ 17.1 µM)
[1]; strain SMH 154B10-2
  MIC: 16 µg/mL (≈ 34.2 µM)
[3]; strain HSC 003B3-1, planktonic
  MIC: 2 to 8 µg/mL (≈ 4.28 to 17.1 µM)
[3]; strain HSC 020B2-1, planktonic
  MIC: 32 to 64 µg/mL (≈ 68.4 to 137 µM)
[3]; strain HSC 027B2-3, planktonic
  MIC: > 128 µg/mL
[3]; strain SMH 022B5-2, planktonic
  MIC: ≤ 0.5 µg/mL
[3]; strain SMH 051B3-1, planktonic
  MIC: ≤ 0.5 µg/mL
[3]; strain SMH 123E1-1, planktonic
  MIC: ≤ 0.5 µg/mL
